Consider twelve compounds from patent US9062078B2, “Substituted 7-azabicyles and their use as orexin receptor modulators” (priority 2013, dated 2015).

Chain of human orexin 2 receptor (O43614 whole entry): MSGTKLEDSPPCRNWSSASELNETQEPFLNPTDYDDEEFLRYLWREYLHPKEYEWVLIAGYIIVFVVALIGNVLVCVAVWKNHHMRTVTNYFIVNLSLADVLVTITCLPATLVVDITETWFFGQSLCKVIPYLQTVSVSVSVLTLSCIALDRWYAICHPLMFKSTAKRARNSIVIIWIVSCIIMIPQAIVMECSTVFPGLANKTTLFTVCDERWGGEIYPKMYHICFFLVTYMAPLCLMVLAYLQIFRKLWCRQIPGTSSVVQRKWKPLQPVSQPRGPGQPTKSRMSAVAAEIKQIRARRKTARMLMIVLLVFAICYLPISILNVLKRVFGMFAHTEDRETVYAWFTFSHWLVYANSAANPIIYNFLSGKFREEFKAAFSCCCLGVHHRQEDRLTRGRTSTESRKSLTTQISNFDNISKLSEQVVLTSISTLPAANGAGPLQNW

One experiment concerns the target human orexin 2 receptor (Homo sapiens (Human), UniProt O43614). As to the kind of experiment: Human orexin 2 receptor radioligand binding (competitive, [3H]-EMPA, HEK293 cell preparations). The settings on record: hOX2 Ki (nm).
The Ki is a dissociation constant, usually derived from enzyme kinetics or from competition with a known ligand. Take `Cc1ccc(-n2nccn2)c(C(=O)N2C3CCC2C(COc2ccccn2)C3)n1` (racemic) [Example 4, (±)-(6-methyl-3-(2H-1,2,3-triazol-2-yl)pyridin-2-yl)(2-((pyridin-2-yloxy)methyl)-7-azabicyclo[2.2.1]heptan-7-yl)methanone]: the affinity, expressed as Ki, was 927 nM.

`CCOc1ccccc1C(=O)N1C2CCC1C(COc1nc(C)cc(C)n1)C2` (racemic) [Example 42, (±)-(2-(((4,6-dimethylpyrimidin-2-yl)oxy)methyl)-7-azabicyclo[2.2.1]heptan-7-yl)(2-ethoxyphenyl)methanone] yielded a Ki of 253 nM. Same read-out and setting: the figure for `Cc1ccc(-n2nccn2)c(C(=O)N2[C@@H]3CC[C@H]2[C@H](COc2ccccn2)C3)n1` [Example 5A, (6-methyl-3-(2H-1,2,3-triazol-2-yl)pyridin-2-yl)((1S,2R,4R)-2-((pyridin-2-yloxy)methyl)-7-azabicyclo[2.2.1]heptan-7-yl)methanone] is 428 nM; for `Cc1ccc(-n2nccn2)c(C(=O)N2C3CCC2C(COc2ccccn2)C3)n1` [Example 6, (6-methyl-3-(2H-1,2,3-triazol-2-yl)pyridin-2-yl)((1S,2R,4R)-2-((pyridin-2-yloxy)methyl)-7-azabicyclo[2.2.1]heptan-7-yl)methanone] it is 428 nM.

The experiment is the same for the next values; noted with them: human orexin 2 receptor, [3H]-EMPA competition binding; read-out: hOX2 Ki (nm).
For `Cc1ccc(-n2nccn2)c(C(=O)N2C3CCC2C(COc2ccc(F)cn2)C3)c1` (racemic) [Example 9, (±)-(2-(((5-fluoropyridin-2-yl)oxy)methyl)-7-azabicyclo[2.2.1]heptan-7-yl)(5-methyl-2-(2H-1,2,3-triazol-2-yl)phenyl)methanone], the inhibition constant (Ki) is 57 nM.

With `COc1c(F)cccc1C(=O)N1C2CCC1C(COc1ccc(F)cn1)C2` (racemic) [Example 107, (±)-((3-fluoro-2-methoxyphenyl)(2-(((5-fluoropyridin-2-yl)oxy)methyl)-7-azabicyclo[2.2.1]heptan-7-yl)methanone], the inhibitory constant (Ki) came out at 2200 nM.

As to `COc1c(F)cccc1C(=O)N1C2CCC1C(COc1ccc(F)cn1)C2` (racemic) [Example 173, (±)-(3-fluoro-2-methoxyphenyl)(2-(((5-fluoropyridin-2-yl)oxy)methyl)-7-azabicyclo[2.2.1]heptan-7-yl)methanone], the inhibitory constant (Ki) turned out to be 3000 nM. Same read-out and setting: the figure for `O=C(c1cc(F)ccc1-c1ncccn1)N1[C@@H]2CC[C@H]1[C@H](COc1ccccn1)C2` [Example 1, (5-fluoro-2-(pyrimidin-2-yl)phenyl)((1S,2R,4R)-2-((pyridin-2-yloxy)methyl)-7-azabicyclo[2.2.1]heptan-7-yl)methanone] is 276 nM; for `Cc1ccc(-n2nccn2)c(C(=O)N2[C@@H]3CC[C@H]2[C@H](COc2ccc(F)cn2)C3)c1` [Example 10A, ((1S,2R,4R)-2-(((5-fluoropyridin-2-yl)oxy)methyl)-7-azabicyclo[2.2.1]heptan-7-yl)(5-methyl-2-(2H-1,2,3-triazol-2-yl)phenyl)methanone] it is 32 nM.

As for `CCOc1ccc2ccccc2c1C(=O)N1[C@@H]2CC[C@H]1[C@H](Nc1cnc(C(F)(F)F)cn1)C2` [Example 239, (2-ethoxynaphthalen-1-yl)((1S,2R,4R)-2-((5-(trifluoromethyl)pyrazin-2-yl)amino)-7-azabicyclo[2.2.1]heptan-7-yl)methanone], the Ki was determined as 490 nM.

Staying with this experiment, now noted: read-out: hOX2 Ki (nm).
As for `O=C(c1ccccc1-n1nccn1)N1C2CCC1C(Nc1cnc(C(F)(F)F)cn1)C2` (single isomer, unassigned) [Example 183a], the Ki is > 10000 nM. On the same count and under the same terms, the figure for `Cc1ccc(-n2nccn2)c(C(=O)N2[C@H]3CC[C@@H]2[C@@H](COc2ccccn2)C3)n1` [Example 5B, (6-methyl-3-(2H-1,2,3-triazol-2-yl)pyridin-2-yl)((1R,2S,4S)-2-((pyridin-2-yloxy)methyl)-7-azabicyclo[2.2.1]heptan-7-yl)methanone] is > 10000 nM.
